Assay results: patent US4234511A, “Dialkylamino-N,N-bis(phosphonoalkylene)alkylamines and use in aqueous systems as precipitation and corrosion inhibitors” (Buckman Laboratories, Inc., priority 1979, dated 1980)
Counter-ions that a name gives are not always drawn.

Legend:
[1] = Calcium Carbonate Antiprecipitation Tests; details: pH 9, 25° C., approx. 18 hours
Protocol: To evaluate the effect of the compounds of the present invention on the precipitation of calcium carbonate, measured volume of stock solution (prepared with demineralized water) of the phosphonic acids or their reaction product with epichlorohydrin were added to 100-ml portions of a calcium hydroxide solution (0.40 g Ca(OH)2 per liter). Then 100 ml of a sodium bicarbonate solution (0.50 g NaHCO3 per liter) was added to each portion of calcium hydroxide solution. The pH of each portion was adjusted to 9.00 (±0.05). The test solutions were then agitated on a rotary shaker for approximately 18 hours at a temperature of 25° C. At the end of this time insoluble material was removed by filtration with Whatman No. 4 filter paper and the calcium ion concentration in the filtrate was determined by titration with a standard ethylenediamine tetraacetic acid solution. The percent inhibition (Table 1) was calculated by comparing the test solution values with two controls included in every test series.

[2] = Corrosion inhibition, circulating Memphis tap water with mild steel coupons; details: initial pH 7.5, 50° C., three days
Protocol: The test apparatus included a sump, a flow circuit, a circulating pump and a heater. […] The test fluid was Memphis tap water with the pH adjusted to 7.5 and the temperature was maintained at 50° C.±2° C.
The test fluid containing various concentrations of the compositions described herein was circulated continuously through the system containing the test coupons for a period of three days. At the end of this period, the coupons were removed, cleaned and weighed. The corrosion rates were calculated in milligrams per square decimeter per day (MDD).

| SMILES | Inhibition of Calcium Carbonate Precipitation, percent inhibition ([1]; 1.0 parts per million) | Inhibition of Calcium Carbonate Precipitation, percent inhibition ([1]; 2.0 parts per million) | Inhibition of Calcium Carbonate Precipitation, percent inhibition ([1]; 3.0 parts per million) | Inhibition of Calcium Carbonate Precipitation, percent inhibition ([1]; 4.0 parts per million) | Inhibition of Calcium Carbonate Precipitation, percent inhibition ([1]; 5.0 parts per million) | Inhibition of Calcium Carbonate Precipitation, percent inhibition ([1]; 6.0 parts per million) | Inhibition of Calcium Carbonate Precipitation, percent inhibition ([1]; 7.0 parts per million) | Inhibition of Calcium Carbonate Precipitation, percent inhibition ([1]; 8.0 parts per million) | Inhibition of Calcium Carbonate Precipitation, percent inhibition ([1]; 9.0 parts per million) | Inhibition of Calcium Carbonate Precipitation, percent inhibition ([1]; 10.0 parts per million) | Corrosion rate, Average ([2]; 50 parts per million) | Corrosion rate, Copper Couple ([2]; 50 parts per million) | Corrosion rate, Sump 1 ([2]; 50 parts per million) | Corrosion rate, Sump 2 ([2]; 50 parts per million) | Corrosion Inhibition, Percent ([2]; 100 parts per million) | Corrosion rate, Average ([2]; 100 parts per million) | Corrosion rate, Copper Couple ([2]; 100 parts per million) | Corrosion rate, Sump 1 ([2]; 100 parts per million) | Corrosion rate, Sump 2 ([2]; 100 parts per million) | also measured |
| --- | --- | --- | --- | --- | --- | --- | --- | --- | --- | --- | --- | --- | --- | --- | --- | --- | --- | --- | --- | --- |
| CN(C)CCCN(CP(=O)(O)O)CP(=O)(O)O [A, 3-(N,N-Dimethylamino)-N',N'-bis(phosphonomethyl)propylamine Hydrochloride] | 0% | 0% | 4.2% | 41.6% | 50.9% | 54.5% | 64.1% | 60.6% | 69.4% | 67.5% | 1.51 Miligrams per decimeter per day | 3.01 Miligrams per decimeter per day | 1.33 Miligrams per decimeter per day | 0.18 Miligrams per decimeter per day | 99.5% | 1.24 Miligrams per decimeter per day | 1.06 Miligrams per decimeter per day | 0.89 Miligrams per decimeter per day | 1.77 Miligrams per decimeter per day | Corrosion Inhibition, Percent ([2]; 50 parts per million): 99.4%; Corrosion Inhibition, Percent ([2]; 200 parts per million): 99.2%; Corrosion rate, Average ([2]; 200 parts per million): 2.13 Miligrams per decimeter per day; Corrosion rate, Copper Couple ([2]; 200 parts per million): 3.90 Miligrams per decimeter per day; Corrosion rate, Sump 1 ([2]; 200 parts per million): 1.15 Miligrams per decimeter per day; Corrosion rate, Sump 2 ([2]; 200 parts per million): 1.33 Miligrams per decimeter per day |
| CN(C)CCN(CP(=O)(O)O)CP(=O)(O)O [F, 2-Dimethylamino-N',N'-bis(phosphonomethyl)ethylamine Hydrochloride] | 6.2% | 17.8% | 32.3% | 35.3% | 49.5% | 55.6% | 65.2% | 69.6% | 77.7% | 78.6% | 35.46 Miligrams per decimeter per day | 40.08 Miligrams per decimeter per day | 12.94 Miligrams per decimeter per day | 53.37 Miligrams per decimeter per day | 99.4% | 1.57 Miligrams per decimeter per day | 1.95 Miligrams per decimeter per day | 1.24 Miligrams per decimeter per day | 1.51 Miligrams per decimeter per day | Corrosion Inhibition, Percent ([2]; 150 parts per million): 99.6%; Corrosion rate, Average ([2]; 150 parts per million): 1.06 Miligrams per decimeter per day; Corrosion rate, Copper Couple ([2]; 150 parts per million): 0.98 Miligrams per decimeter per day; Corrosion rate, Sump 1 ([2]; 150 parts per million): 1.15 Miligrams per decimeter per day; Corrosion rate, Sump 2 ([2]; 150 parts per million): 1.06 Miligrams per decimeter per day |
